Here are results for four compounds from patent US20070225212A1, “Use of a peptide” (priority 1992, published 2007).

Assay [1] deals with diabetic as well as nondiabetic subjects. As to conditions: cited from earlier work.
Assay [2] has as its system patients with NIDDM and secondary failure to sulfonylurea treatment. The experiment in a line: Example 2: basal state and standard lunch study in patients with secondary failure to sulfonylurea treatment. The conditions noted are these: for Insulinogenic index (integrated insulin/integrated glucose response): after ingestion of the meal; for Insulinogenic index (integrated insulin/integrated glucose response) / Blood glucose: GLP-1(7-36)amide 0.75 pmol/kg/min, glibenclamide 1 mg i.v., 8 NIDDM patients with sulfonylurea failure. Type of assay: in vivo, human.

In assay [3] the test system is insulin treated obese NIDDM patients. The experiment in a line: Example 1: standard test meal study, meal-related C-peptide response, glucagon response and IMIR. Type of assay: in vivo, human. As to conditions: GLP-1(7-36)amide 0.75 pmol/kg/min infusion for 210 min, glibenclamide 1 mg i.v., 6 insulin treated obese NIDDM patients.
The next assay relates to healthy volunteers. As to conditions: peptide infused into healthy volunteers; cited from earlier work.
Assay [4] relates to isolated precultured rat pancreatic islets. The conditions noted are these: in the presence of glucose, dose-dependent; cited from earlier work.
[5] abbreviates: basal state, 45 minutes after start of administration.

Ends that are not written are not given here.

As for “GLP-1(7-37): Peptide of formula I with X = Gly-OH; residues 7 to 37 of GLP-1 (HAEGTFTSDVSSYLEGQAAKEFIAWLVKGRG-OH; UniProt P01275 98-128, looked up, fragment)”, in assay [1], the insulinotropic action entry is listed as “has been demonstrated”.
On to `COc1ccc(Cl)cc1C(=O)NCCc1ccc(S(=O)(=O)NC(=O)NC2CCCCC2)cc1` [glibenclamide], for which the “Insulinogenic index (integrated insulin/integrated glucose response)” value in assay [2] is reported as 10.6 ± 2.8,. Besides, in assay [2] (setting [5]), the “effect on blood glucose and C-peptide levels (in words)” value is reported as “no significant effect on its own”; the Blood glucose was determined as 6.0 ± 0.3 mmol/L. For the same compound, the Glucagon response entry in assay [3] was “no significant effect”.
For “GLP-1(7-36)amide: Peptide of formula I, His-Ala-Glu-Gly-Thr-...-Lys-Gly-Arg-X with X = NH2; fragment of glucagon-like peptide-1”, the “Insulinogenic index (integrated insulin/integrated glucose response)” value in assay [2] is given as 21.0 ± 7.2,. Further, the Blood glucose in assay [2] (setting [5]) worked out at 5.1 ± 0.4 mmol/L. Besides, the plasma insulin entry with healthy volunteers is “significant rise in plasma insulin”.
Take “GLP-1(1-36)amide: amide of a fragment of GLP-1 comprising amino acid residues 1 to 36 (HDEFERHAEGTFTSDVSSYLEGQAAKEFIAWLVKGR-NH2; UniProt P01275 92-127, looked up, fragment)”: in assay [4], the insulin release entry is listed as “stimulates insulin release”.
